In ChEMBL document CHEMBL3792339, “Identification of new quinic acid derivatives as histone deacetylase inhibitors by fluorescence-based cellular assay” (Bioorg Med Chem Lett, 2016) one finds inhibition and IC50 data, which are given here for 18 molecules.

Molecules are shown by their SMILES. The source made the active and inactive calls. The calls are words filed in the database; no cut-off is given here. Bounds are passed on as bounds.

In assay [1] the test system is C127-LT. In words: Inhibition of HDAC in mouse C127-LT cells assessed as activation of EGFP expression at 10 uM after 24 hrs by fluorescence microscopy. It counts as cell-based.
The target of assay [2] is Histone deacetylase. Briefly: Inhibition of HDAC in human HeLa nuclear extract using fluor de lys as substrate after 10 to 15 mins by spectrofluorometry. It counts as protein assay.
The target in assay [3] is Histone deacetylase. In words: Inhibition of HDAC in human HeLa cells using Boc-Lys(AC)-AMC as substrate after 24 to 48 hrs by spectrofluorometry. It counts as cell-based.
Assay [4] deals with T1, Histone deacetylase (Homo sapiens) (UniProt Q13547+O15379+Q9UBN7+Q92769+Q9UQL6+Q8WUI4+Q9BY41+Q96DB2+P56524+Q9UKV0+Q969S8). Briefly: Inhibition of HDAC in human HeLa nuclear extract assessed as accumulation of acetylated histone H3 at 0.1 to 100 uM after 24 hrs by western blot analysis. It counts as protein assay. For orientation: In western blotting, separated proteins are transferred to a membrane and probed.

Assay [5] addresses T1, Histone deacetylase (Homo sapiens). The settings on record: at 10 to 25 µM.
Description: Competitive inhibition of HDAC in human HeLa nuclear cells at 10 to 25 uM using Boc-acetyl-lysine-AMC as substrate after 30 mins by Lineweaver-Burk plot analysis
The test system of assay [6] is C127-LT. In words: Inhibition of HDAC in mouse C127-LT cells assessed as activation of EGFP expression at 1 uM after 24 hrs by fluorescence microscopy. It counts as cell-based.
The test system of assay [7] is C127-LT. In words: Inhibition of HDAC in mouse C127-LT cells assessed as activation of EGFP expression at 200 nM after 24 hrs by fluorescence microscopy. The assay is classed as cell-based.

Regarding `COc1cc2c(cc1OC)[C@@H]1Cc3ccc(O)c(O)c3CN1CC2`, in the assay on C127-LT [1], the inhibition result was “Active”.
As for `C=C1CC[C@@H]2[C@](C)(CCC[C@]2(C)C(=O)O)[C@H]1CCC1=CC(OCCCC)OC1=O` (some centres undefined), the inhibition result in the assay on C127-LT [1] is “inactive”.
In the case of `O=C(/C=C/c1ccc(O)c(O)c1)O[C@@H]1C[C@](O)(C(=O)O)C[C@@H](OC(=O)/C=C/c2ccc(O)c(O)c2)[C@H]1O`, the inhibition entry with C127-LT [1] is “inactive”. Moreover, the IC50 against Histone deacetylase [2] is 143.24 µM; at Histone deacetylase [3] it was above 500 µM.
For the molecule `COC(=O)[C@]1(O)C[C@@H](OC(=O)/C=C/c2ccc(O)c(O)c2)[C@@H](O)[C@H](OC(=O)/C=C/c2ccc(O)c(O)c2)C1`, the inhibition result (in the assay with C127-LT [1]; in assay [4]; in assay [5]) was “Active” each time. Moreover, the figures for the IC50 against Histone deacetylase [2] and at Histone deacetylase [3] were 4.99 µM and 7.59 µM, respectively.
`COc1ccc2cc3[n+](cc2c1OC)CCc1cc2c(cc1-3)OCO2`: the inhibition entry in the assay on C127-LT [1] is “Active”.
On the same count and under the same terms, with `C=C1[C@@H]2[C@H]3OC(=O)[C@@H](CN4CCC[C@H]4C(=O)O)[C@@H]3[C@@H](OC(=O)C(C)(O)CO)CC(=C)[C@@H]2C[C@@H]1O` (some centres undefined) the entry was “inactive”.
As to `O=C(/C=C/c1ccc(O)c(O)c1)O[C@@H]1C[C@](O)(C(=O)O)C[C@@H](O)[C@H]1O` [CHLOROGENIC ACID], the inhibition result in the assay with C127-LT [1] was “inactive”. Also, the IC50 at Histone deacetylase [2] and against Histone deacetylase [3] was above 200 µM throughout.
As for `C=C1[C@@H]2[C@H]3OC(=O)[C@@H](CN[C@@H](Cc4c[nH]c5ccccc45)C(=O)O)[C@@H]3[C@@H](O)CC(=C)[C@@H]2C[C@@H]1O`, in the assay with C127-LT [1], the inhibition entry is “inactive”.
Regarding `COc1cc2c3c(cc4ccccc4c3c1O)NC2=O`, the inhibition result with C127-LT [1] is “inactive”.
The same measure, in the same setting: with `C=C1[C@@H]2[C@H]3OC(=O)[C@@H](CN[C@H](C(=O)O)C(C)C)[C@@H]3[C@@H](O)CC(=C)[C@@H]2C[C@@H]1O` the entry was “inactive”.
In the case of `C=C1C(=O)O[C@@H]2[C@H]3C(=C)[C@@H](O)C[C@H]3C(=C)C[C@H](OC(=O)CC(C)(C)O)[C@@H]12`, in the assay on C127-LT [1], the inhibition entry was “inactive”.
As for `Nc1ccccc1NC(=O)c1ccc(CNC(=O)OCc2cccnc2)cc1`, the inhibition entry in the assay on C127-LT [6] and with C127-LT [1] was “Active” throughout.
For the molecule `O=C(/C=C/c1ccc(O)c(O)c1)O[C@@H]1C[C@@](O)(C(=O)O)C[C@@H](O)[C@@H]1O`, the inhibition result in the assay with C127-LT [1] is “inactive”. Moreover, the IC50 against Histone deacetylase [2] is 170.4 µM; against Histone deacetylase [3], above 200 µM.
`CC(/C=C/C(=O)NO)=C\[C@@H](C)C(=O)c1ccc(N(C)C)cc1`: the inhibition result in the assay on C127-LT [7] is “Active”.
In the case of `C=C1C(=O)O[C@@H]2[C@H]3C(=C)[C@@H](O)C[C@H]3C(=C)C[C@H](OC(=O)C(C)(O)CO)[C@@H]12` (some centres undefined), the inhibition entry in the assay on C127-LT [1] is “inactive”.
On to `CC(=O)OCCc1ccc(O)c(O)c1`, for which the inhibition result in the assay with C127-LT [1] is “Active”.
As to `COc1cc(-c2oc3cc(O)cc(O)c3c(=O)c2O[C@@H]2O[C@H](CO[C@@H]3O[C@@H](C)[C@H](O)[C@@H](O)[C@H]3O)[C@@H](O)[C@H](O)[C@H]2O)ccc1O`, in the assay with C127-LT [1], the inhibition entry was “Active”.
Take `C=C(CO)C(=O)O[C@H]1CC(=C)[C@@H]2C[C@H](O)C(=C)[C@@H]2[C@H]2OC(=O)C(=C)[C@@H]21`: in the assay with C127-LT [1], the inhibition entry is “inactive”.

Usually IC50 stands for the concentration needed to halve the response being measured. High values mean lower potency, low ones higher potency.
